Measured values as given in US20150119394A1, “Insulin-Like Growth Factor-1 Receptor Inhibitors” (Merck Sharp & Dohme Corp., priority 2012, published 2015).

Assays:
[1] = biological target: T1, intracellular kinase domain of human IGF-1R (GST fusion protein) (Homo sapiens, UniProt P08069); assay: In vitro IGF-1R kinase assay (HTRF); format: biochemical; conditions: ATP 20 μM, IGFRK 0.25 nM
T1 construct: IGFRK and IRK enzyme used for the assay was intracellular kinase domain of human IGF-1R; GST; made in house
T1 sequence (P08069 999-1274 limits assumed): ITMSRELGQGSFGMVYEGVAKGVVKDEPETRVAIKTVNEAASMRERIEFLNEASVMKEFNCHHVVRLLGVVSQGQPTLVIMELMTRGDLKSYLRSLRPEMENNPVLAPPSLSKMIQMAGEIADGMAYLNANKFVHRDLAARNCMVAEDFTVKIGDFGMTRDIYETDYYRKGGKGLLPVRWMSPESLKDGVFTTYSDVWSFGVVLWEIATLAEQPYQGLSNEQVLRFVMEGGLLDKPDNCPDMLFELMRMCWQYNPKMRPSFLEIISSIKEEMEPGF

[2] = Oral absorption in Swiss mice; format: in vivo; conditions: 10 mg/kg p.o.; for Cmax / half-life / AUC(0-inf): male, mouse, plasma, po; for AUC(0-inf): read-out: AUC0-infinity
Protocol: Oral absorption of different compounds was ascertained in Swiss mice. The procedure followed was as detailed below:
Species: Swiss mice, overnight fasted state
Sex and weight: Male, in the weight range of 25-30 g
Number of animals: 18 animals divided into six groups (n=3) and bled as follows:
Formulation: Compound suspended in 0.5% carboxymethylcellulose or 0.25% methylcellulose
Blood (250 μL) is collected from the retro-orbital sinus at designated time points from each mouse using heparinized bleeding capillaries into micro-centrifuge tubes containing 5 μL EDTA (200 mM) as anticoagulant. Plasma is separated by centrifugation at 10000 rpm for 5 min and samples stored at −70° C. until bioanalysis.
On the day of analysis, plasma samples are thawed at room temperature. An aliquot (100 μL) of each plasma sample is spiked individually with 10 μL of internal standard. The samples are then vortexed for 10 seconds followed by addition of 1 mL of extraction solvent and vortexed for 5 minutes. The samples are then centrifuged at 10000 rpm for 5 minutes at 4° C. Supernatants (800 μL) are removed and transferred to glass tubes and evaporated to dryness under nitrogen. The dried residues are reconstituted using 100 μL of 90:10% v/v acetonitrile:MilliQ water. The reconstituted samples are vortexed, centrifuged and injected into LC-MS/MS for analysis. The calibration curve is prepared in the range of 0.5 to 5000 ng/mL in mouse plasma for quantitation.

CYP3A4 = biological target: T2, CYP3A4 (Homo sapiens, UniProt P08684); assay: CYP inhibition fluorescence assay (rhCYP450, Vivid Invitrogen kit); format: in vitro ADME; conditions: for hepatic CYP3A4 inhibition as compared to compound 999: 10 uM; for inhibition at 10 uM: human, read-out: % inhibition @ 10 uM 3A4
T2 construct: purchased Invitrogen (Vivid screening kits)
T2 sequence (P08684 whole entry): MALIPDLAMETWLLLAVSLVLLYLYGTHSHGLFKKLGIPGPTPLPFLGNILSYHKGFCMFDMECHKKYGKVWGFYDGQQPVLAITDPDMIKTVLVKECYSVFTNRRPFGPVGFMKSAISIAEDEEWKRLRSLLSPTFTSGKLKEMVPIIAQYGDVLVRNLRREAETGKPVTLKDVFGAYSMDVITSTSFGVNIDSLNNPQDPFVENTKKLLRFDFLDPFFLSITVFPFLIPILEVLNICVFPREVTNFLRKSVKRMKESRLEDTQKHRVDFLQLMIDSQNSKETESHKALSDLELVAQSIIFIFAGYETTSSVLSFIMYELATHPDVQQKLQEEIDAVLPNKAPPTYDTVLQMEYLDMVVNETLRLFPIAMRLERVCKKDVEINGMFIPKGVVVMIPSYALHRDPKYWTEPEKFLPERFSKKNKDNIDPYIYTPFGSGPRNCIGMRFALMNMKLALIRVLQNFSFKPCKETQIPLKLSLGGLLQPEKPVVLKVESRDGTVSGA
Protocol: (§1) The % inhibition @ 10 uM data was generated from an rhCYP450/fluorescence assay according to the Vivid Invitrogen screening kits. The compounds were screened against 5 CYP450 (1A2, 2C9, 2C19, 2D6, and 3A4) isoforms. CYP3A4 constitutes 28% of the human hepatic CYP and is responsible for metabolism of 50% of all drugs. In this class of drugs, CYP3A4 is the most important CYP and thus it is highly desirable not to inhibit CYP3A4. The lower the percentage inhibition, the lower the CYP450 inhibitory liability of that specific compound.

CYP2D6 = biological target: T3, CYP2D6 (Homo sapiens, UniProt P10635); assay: as above; format: in vitro ADME; conditions: for inhibition at 10 uM: human, read-out: % inhibition @ 10 uM 2D6
T3 construct: purchased Invitrogen (Vivid screening kits)
T3 sequence (P10635 whole entry): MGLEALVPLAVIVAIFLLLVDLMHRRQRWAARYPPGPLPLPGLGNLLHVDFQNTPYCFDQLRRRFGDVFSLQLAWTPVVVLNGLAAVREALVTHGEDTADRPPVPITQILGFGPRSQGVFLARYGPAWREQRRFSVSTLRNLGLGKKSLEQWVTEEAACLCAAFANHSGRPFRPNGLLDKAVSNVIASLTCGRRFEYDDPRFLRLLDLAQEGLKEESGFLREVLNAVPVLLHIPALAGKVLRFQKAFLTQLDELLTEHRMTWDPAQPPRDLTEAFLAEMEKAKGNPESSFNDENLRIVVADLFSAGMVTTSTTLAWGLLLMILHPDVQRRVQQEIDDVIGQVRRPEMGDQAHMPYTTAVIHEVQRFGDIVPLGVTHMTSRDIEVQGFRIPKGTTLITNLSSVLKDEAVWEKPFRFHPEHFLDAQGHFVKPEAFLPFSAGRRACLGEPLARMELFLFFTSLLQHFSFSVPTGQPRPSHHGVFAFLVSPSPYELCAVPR
Protocol: as §1

[3] = tested on: A673 (Ewing's Sarcoma) cancer cell line; assay: Anti-proliferative assay (MTS / CCK-8); format: cell-based; conditions: for IC50: Homo sapiens, A673 (Ewing's Sarcoma), 72 hours, 100 ng/mL IGF, read-out: Anti-proliferation IC50
Protocol: Anti-proliferative potential of compounds was tested using various cell lines (details provided in Table 2) by MTS (Promega, Cat # G1111), a tetrazolium compound ((3-(4,5-dimethylthiazol-2-yl)-5-(3-carboxymethoxyphenyl)-2-(4-sulphophenyl)-2Htetrazolium, inner salt; MTS) and Cell Counting kit-8 (CCK-8 a Dojindo's highly watersoluble tetrazolium salt of WST-8 [2-(2-methoxy-4-nitrophenyl)-3-(4-nitrophenyl)-5-(2,4-disulfophenyl)-2H-tetrazolium, monosodium salt]). MTS is a colorimetric assay for determining the number of viable cells in proliferation, cytotoxicity or chemosensitivity assays. This is used with an electron coupling reagent PMS (Phenazine methosulfate). MTS is bioreduced by cells into a formazan that is soluble in tissue culture medium. The absorbance of the formazan at 490 nm can be measured directly from 96 well assay plates without additional processing. Dehydrogenase enzymes found in metabolically active cells accomplish the conversion of MTS into the aqueous soluble formazan. The quantity of formazan product is directly proportional to the number of living cells in culture. In CCK-8, WST-8 is reduced by dehydrogenases in cells to give a yellow colored product formazan, which is measured at 450 nm.
For experimental purposes, cells were seeded at a density of 3000-5000 cells per well in 180 μL/well volume in transparent 96 well tissue culture plate (NUNC, USA) and incubated overnight at 37° C., 5% CO2. Next day before adding compound the medium was replaced and 180 μL, of fresh medium added with the 100 ng/mL IGF without FCS followed by addition of 20 μL of 10× compound (10 mM stock made in DMSO and then further dilutions were made in medium, final DMSO concentration should not exceed 0.5%) and incubated for 72 hours in humidified 5% CO2 incubator at 37±1° C. After incubation medium was replaced with 200 μL of medium containing 20 μL MTS reagent per well. Plates were incubated for 3-4 hours and absorbance was measured at 490 nm on Spectrophotometer (SpectraMax, Molecular Devices). Percentage cytotoxicity and IC50 was calculated using SoftMax software. CCK-8 was used for suspension cell lines. Cell seeding and compound addition was done on same day. Following the incubation, 10 μL of CCK-8 solution was added in each well. After 4 hour incubation, the absorbance was determined at 450 nm using Spectrophotometer (SpectraMax, Molecular Devices). In every experiment, each condition was run in triplicate wells.

Row | IC50 [1] [nM] | AUC as compared to compound 999 [2] | Cmax as compared to compound 999 [2] | Cmax [2] [nM] | half-life [2] [min] | AUC(0-inf) [2] [ng·h/mL] | hepatic CYP3A4 inhibition as compared to compound 999 (CYP3A4) | inhibition at 10 uM (CYP3A4) [%] | inhibition at 10 uM (CYP2D6) [%] | IC50 [3] [nM] | hepatic CYP2D6 inhibition as compared to compound 999 (CYP2D6; 10 uM) | SMILES | anti-proliferative activity as compared to compound 999 ([3]; Ewing's Sarcoma cell line)
1 | 140 | higher | higher | 1980 | 126 | 4710 | reduced | 2 | 25 |  |  | Cc1ccc(OC[C@@H]2CN(S(=O)(=O)c3c(C(N)=O)[nH]c4ccc(Cl)cc34)CCO2)cc1-c1ccccc1 [Compound 20, (S)-5-chloro-3-((2-(((6-methyl-[1,1′-biphenyl]-3-yl)oxy)methyl)morpholino)sulfonyl)-1H-indole-2-carboxamide] | 
2 |  |  |  | 1200 | 78.6 | 1050 |  | 36 | 13 | 3.5 |  | NC(=O)c1[nH]c2ccc(I)cc2c1S(=O)(=O)N1CCO[C@H](COc2ccccc2)C1 [Compound 999, reference compound] | 

More lines, now with the values behind:

Row | SMILES | IC50 [1] [nM] | AUC as compared to compound 999 [2] | Cmax as compared to compound 999 [2] | Cmax [2] [nM] | half-life [2] [min] | AUC(0-inf) [2] [ng·h/mL] | hepatic CYP3A4 inhibition as compared to compound 999 (CYP3A4) | inhibition at 10 uM (CYP3A4) [%] | inhibition at 10 uM (CYP2D6) [%] | IC50 [3] [nM] | hepatic CYP2D6 inhibition as compared to compound 999 (CYP2D6; 10 uM) | anti-proliferative activity as compared to compound 999 ([3]; Ewing's Sarcoma cell line)
3 | Cc1cc(-c2ccc(OC[C@@H]3CN(S(=O)(=O)c4c(C(N)=O)[nH]c5ccc(Cl)cc45)CCO3)cc2)ccn1 [Compound 51, (S)-5-chloro-3-((2-((4-(2-methylpyridin-4-yl)phenoxy)methyl)morpholino)sulfonyl)-1H-indole-2-carboxamide] | 4.3 | higher | higher | 2550 | 60 | 3250 | reduced | 13 | 34 | 0.15 |  | higher
4 | NC(=O)c1[nH]c2ccc(Cl)cc2c1S(=O)(=O)N1CCO[C@H](COc2ccc(-c3ncccn3)cc2)C1 [Compound 53, (S)-5-chloro-3-((2-((4-(pyrimidin-2-yl)phenoxy)methyl)morpholino)sulfonyl)-1H-indole-2-carboxamide] | 6.4 |  |  |  |  |  |  | 37 | 0 |  | reduced | 
5 | Cc1cc(OC[C@@H]2CN(S(=O)(=O)c3c(C(N)=O)[nH]c4ccc(Cl)cc34)CCO2)ccc1-c1ccnc(Cl)c1 [Compound 87, (S)-5-chloro-3-((2-((4-(2-chloropyridin-4-yl)-3-methylphenoxy)methyl)morpholino)sulfonyl)-1H-indole-2-carboxamide] | 9.3 |  |  |  |  |  | reduced | 24 | 16 |  |  | 
